Laboratory results taken from ChEMBL document CHEMBL1201862, “PubChem BioAssay data set” (2004).
The source made the active and inactive calls.

Assays:
[1] = Luminescence Cell-Based Dose Retest to Confirm Inhibitors of Cancer Stem Cells. [Related pubchem assays (depositor defined):AID2717, AID2721]; type: functional; conditions: Homo sapiens
[2] = biological target: T1, Type-1 angiotensin II receptor (Homo sapiens, UniProt P30556); test: agonist activity at AGTR1 – cell-based, uHTS hits, selectivity assay for APJ receptor agonist project, dose response (AID 488865); type: functional;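 also: beta-arrestin recruitment to AT1 measured by enzyme fragment complementation luminescence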
T1 sequence (P30556 whole entry): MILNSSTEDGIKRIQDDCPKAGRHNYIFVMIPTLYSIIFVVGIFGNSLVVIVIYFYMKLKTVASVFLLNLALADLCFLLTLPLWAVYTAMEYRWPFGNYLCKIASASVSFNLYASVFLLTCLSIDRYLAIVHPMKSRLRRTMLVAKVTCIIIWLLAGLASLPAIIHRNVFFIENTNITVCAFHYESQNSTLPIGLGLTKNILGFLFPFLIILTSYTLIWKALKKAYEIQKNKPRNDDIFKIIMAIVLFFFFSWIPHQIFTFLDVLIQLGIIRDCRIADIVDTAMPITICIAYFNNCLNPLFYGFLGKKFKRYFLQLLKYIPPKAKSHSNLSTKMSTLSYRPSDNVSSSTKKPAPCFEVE

[3] = biological target: Troponin, cardiac muscle (Homo sapiens, UniProt P19429+P45379+P63316); test: Fluorescence-based biochemical high throughput dose response assay for activators of the calcium sensitivity of cardiac Regulated Thin Filaments (RTF). [Related pubchem assays (depositor defined):AID493008, AID493018, AID504382, AID504383]; type: protein-complex assay
[4] = biological target: T2, Cytochrome P450 1A2 (Homo sapiens, UniProt P05177);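 also: PubChem cytochrome P450 panel assay, CYP1A2 panel member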
T2 sequence (P05177 whole entry): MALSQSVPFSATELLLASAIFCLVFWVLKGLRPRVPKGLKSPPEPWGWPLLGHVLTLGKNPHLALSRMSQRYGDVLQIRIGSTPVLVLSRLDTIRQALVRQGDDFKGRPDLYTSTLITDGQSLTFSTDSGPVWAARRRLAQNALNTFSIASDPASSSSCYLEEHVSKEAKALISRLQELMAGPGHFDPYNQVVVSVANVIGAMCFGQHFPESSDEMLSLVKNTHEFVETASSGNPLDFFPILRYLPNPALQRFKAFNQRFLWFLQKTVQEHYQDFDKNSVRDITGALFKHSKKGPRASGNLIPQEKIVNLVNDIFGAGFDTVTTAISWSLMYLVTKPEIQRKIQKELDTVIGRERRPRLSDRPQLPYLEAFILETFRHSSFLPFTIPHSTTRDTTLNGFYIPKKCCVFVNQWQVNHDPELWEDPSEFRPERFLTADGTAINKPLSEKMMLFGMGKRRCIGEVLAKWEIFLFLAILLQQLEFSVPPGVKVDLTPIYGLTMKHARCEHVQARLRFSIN

[5] = biological target: Cytochrome P450 2C9 (Homo sapiens, UniProt P11712)
[6] = test system: HEK293; test: inhibition of NOD1-driven NF-kB reporter – cell-based, luminescence, uHTS, primary screen (AID 1578); type: functional; conditions: Homo sapiens
[7] = test system: HEK293; test: cells; type: functional, cell-based; conditions: Homo sapiens
[8] = test system: HEK293; test: cells; type: functional, cell-based; conditions: Homo sapiens; remark: listed apart in the source
[9] = biological target: Nucleotide-binding oligomerization domain-containing protein 2 (Homo sapiens, UniProt Q9HC29); test: inhibition of NOD2-driven NF-kB reporter – cell-based, luminescence, uHTS, HEK293 (AID 1566); type: functional
[10] = test system: HEK293; test: NOD2 signaling inhibitors in MDP-stimulated cells, cell-based, uHTS, luminescence (AID 2001); type: functional; conditions: Homo sapiens
[11] = test system: HEK293; test: cells; type: functional, cell-based; conditions: Homo sapiens; remark: listed apart in the source
[12] = biological target: T3, Microphthalmia-associated transcription factor (Homo sapiens, UniProt O75030); test: reducers of TRPM1 reporter luminescence, concentration series – cell-based, SK-MEL-5, cherry-picked, set 3, MITF inhibitor project, dose response (AID 493073); type: functional;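 also: SK-MEL-5 melanoma cells with luciferase driven by the MITF target TRPM1 promoter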
T3 sequence (O75030 whole entry): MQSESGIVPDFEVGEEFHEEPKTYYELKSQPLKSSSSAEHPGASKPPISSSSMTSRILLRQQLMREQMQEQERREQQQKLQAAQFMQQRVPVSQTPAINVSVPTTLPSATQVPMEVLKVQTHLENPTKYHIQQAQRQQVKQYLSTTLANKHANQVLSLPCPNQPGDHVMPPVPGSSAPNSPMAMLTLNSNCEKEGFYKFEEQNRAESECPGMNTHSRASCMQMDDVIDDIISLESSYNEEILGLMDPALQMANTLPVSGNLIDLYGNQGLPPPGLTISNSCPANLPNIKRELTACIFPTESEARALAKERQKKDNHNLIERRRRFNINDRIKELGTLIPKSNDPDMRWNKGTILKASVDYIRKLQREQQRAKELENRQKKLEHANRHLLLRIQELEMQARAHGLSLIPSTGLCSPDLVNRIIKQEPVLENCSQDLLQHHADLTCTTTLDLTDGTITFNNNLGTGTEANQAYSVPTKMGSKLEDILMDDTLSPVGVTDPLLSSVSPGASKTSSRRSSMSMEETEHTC

[13] = biological target: DNA (cytosine-5)-methyltransferase 1 (Homo sapiens, UniProt P26358); test: inhibition of DNA methylation by DNMT1 – biochemical, fluorescent molecular beacon, confirmation (AID 602386); type: functional
[14] = biological target: T4, Histone-lysine N-methyltransferase NSD2 (Homo sapiens, UniProt O96028); type: biochemical
T4 sequence (O96028 whole entry): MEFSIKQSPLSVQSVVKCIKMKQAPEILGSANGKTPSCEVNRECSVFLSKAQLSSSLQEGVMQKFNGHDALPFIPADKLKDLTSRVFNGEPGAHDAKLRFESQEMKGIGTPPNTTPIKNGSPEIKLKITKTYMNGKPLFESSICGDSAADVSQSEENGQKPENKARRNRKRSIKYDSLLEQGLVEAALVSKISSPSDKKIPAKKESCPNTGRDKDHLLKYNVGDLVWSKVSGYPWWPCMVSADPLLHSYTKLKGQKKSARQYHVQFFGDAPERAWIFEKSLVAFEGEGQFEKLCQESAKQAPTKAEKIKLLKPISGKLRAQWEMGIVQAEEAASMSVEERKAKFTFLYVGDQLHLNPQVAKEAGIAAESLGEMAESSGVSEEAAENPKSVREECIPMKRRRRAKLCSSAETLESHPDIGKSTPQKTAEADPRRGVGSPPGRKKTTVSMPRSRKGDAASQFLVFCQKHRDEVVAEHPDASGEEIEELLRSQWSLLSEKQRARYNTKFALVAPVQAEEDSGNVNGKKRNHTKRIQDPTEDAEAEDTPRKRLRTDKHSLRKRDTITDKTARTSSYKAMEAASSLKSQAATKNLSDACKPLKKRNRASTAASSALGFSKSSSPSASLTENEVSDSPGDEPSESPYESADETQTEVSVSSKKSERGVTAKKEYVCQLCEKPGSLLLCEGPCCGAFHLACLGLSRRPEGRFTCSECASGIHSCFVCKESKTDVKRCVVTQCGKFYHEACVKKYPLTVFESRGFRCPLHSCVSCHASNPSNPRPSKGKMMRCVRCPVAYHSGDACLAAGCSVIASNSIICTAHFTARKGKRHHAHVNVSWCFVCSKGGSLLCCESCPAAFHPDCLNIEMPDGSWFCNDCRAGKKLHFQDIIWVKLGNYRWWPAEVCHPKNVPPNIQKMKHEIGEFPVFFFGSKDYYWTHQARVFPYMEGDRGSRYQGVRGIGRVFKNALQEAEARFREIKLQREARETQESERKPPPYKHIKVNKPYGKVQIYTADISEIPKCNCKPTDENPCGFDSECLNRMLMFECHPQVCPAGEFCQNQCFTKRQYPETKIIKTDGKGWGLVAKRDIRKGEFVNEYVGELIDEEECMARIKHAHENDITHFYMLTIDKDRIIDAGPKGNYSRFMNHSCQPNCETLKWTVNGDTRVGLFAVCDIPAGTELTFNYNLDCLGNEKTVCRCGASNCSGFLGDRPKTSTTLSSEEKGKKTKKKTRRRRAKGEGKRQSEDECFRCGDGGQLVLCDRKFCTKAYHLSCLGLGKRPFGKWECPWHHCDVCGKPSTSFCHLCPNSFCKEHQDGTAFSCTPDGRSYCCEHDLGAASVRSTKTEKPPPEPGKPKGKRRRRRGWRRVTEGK

[15] = viability loss in THP-1 monocytes – THP-1 cells, cytotoxicity control for Vif-APOBEC3G degradation inhibitor project, dose response (AID 1117359); type: functional; conditions: THP-1
[16] = biological target: DNA damage-inducible transcript 3 protein (Mus musculus, UniProt P35639); type: functional, Cricetulus griseus
[17] = biological target: T5, Runt-related transcription factor 1/Core-binding factor subunit beta (Homo sapiens, UniProt Q01196+Q13951); test: disruptors of Runt domain/CBFb-SMMHC interaction – biochemical, FRET, Cerulean-Runt, Venus-CBFb-SMMHC, uHTS, […] (AID 1434); type: protein assay
[18] = biological target: T6, Voltage-gated N-type calcium channel alpha-1B subunit/Amyloid beta A4 precursor protein-binding family A member 1 (Homo sapiens, UniProt Q00975+Q02410); type: protein assay
[19] = biological target: T5, Runt-related transcription factor 1/Core-binding factor subunit beta; test: Runt domain/CBFb-SMMHC interaction disruptors – biochemical, TR-FRET (AID 1438); type: protein assay
[20] = biological target: T6, Voltage-gated N-type calcium channel alpha-1B subunit/Amyloid beta A4 precursor protein-binding family A member 1; type: protein assay; remark: listed apart in the source
[21] = biological target: T7, Heat shock factor protein 1 (Mus musculus, UniProt P38532); test: enhancement of HSF1-driven luciferase signal – cell-based, NIH3T3, luminescence, dose retest, confirmation (AID 435004); type: functional;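 also: stress induced by proteasome inhibitor MG132 added 30 min after compound; luciferase reporter driven by HSF1 response element in NIH3T3 cells; actives raise luminescence as potentiators of the MG132 stress response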
T7 sequence (P38532 whole entry): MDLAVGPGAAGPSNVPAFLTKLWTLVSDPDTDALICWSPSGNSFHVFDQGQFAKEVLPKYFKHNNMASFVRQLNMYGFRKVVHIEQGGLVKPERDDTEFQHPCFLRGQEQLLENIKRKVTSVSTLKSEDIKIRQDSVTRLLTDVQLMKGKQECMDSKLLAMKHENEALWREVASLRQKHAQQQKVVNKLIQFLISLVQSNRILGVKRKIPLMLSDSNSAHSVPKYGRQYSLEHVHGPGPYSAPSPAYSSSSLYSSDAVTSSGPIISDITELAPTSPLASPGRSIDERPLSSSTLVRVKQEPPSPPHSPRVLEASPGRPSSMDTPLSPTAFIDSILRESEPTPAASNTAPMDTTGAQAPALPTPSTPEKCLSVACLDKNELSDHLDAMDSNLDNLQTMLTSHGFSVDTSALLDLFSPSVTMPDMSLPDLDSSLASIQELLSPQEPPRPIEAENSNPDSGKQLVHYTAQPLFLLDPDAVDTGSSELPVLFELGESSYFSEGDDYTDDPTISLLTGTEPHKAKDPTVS

[22] = biological target: T8, Cannabinoid receptor 2 (Homo sapiens, UniProt P34972); test: SAR analysis of antagonists of the Cannabinoid Receptor 2 using an Image-Based Assay - Set 2. [Related pubchem assays (depositor defined):AID1961, AID1965]; type: functional
[23] = biological target: G-protein coupled receptor 55 (Homo sapiens, UniProt Q9Y2T6); test: SAR analysis of selective Agonists of GPR55 using an Image-Based Assay - Set 2. [Related pubchem assays (depositor defined):AID1961, AID1965]; type: functional
[24] = biological target: T8, Cannabinoid receptor 2; test: SAR analysis of agonists of the Cannabinoid Receptor 2 using an Image-Based Assay - Set 2. [Related pubchem assays (depositor defined):AID1961, AID1965]; type: functional
[25] = biological target: T9, G-protein coupled receptor 35 (Homo sapiens, UniProt Q9HC97); test: SAR analysis of Agonists of the GPR35 Receptor using an Image-Based Assay - Set 3. [Related pubchem assays (depositor defined):AID1961, AID1965]; type: functional
[26] = biological target: T10, Cannabinoid receptor 1 (Homo sapiens, UniProt P21554); test: SAR analysis of antagonists of the Cannabinoid Receptor 1 using an Image-Based Assay - Set 3. [Related pubchem assays (depositor defined):AID1961, AID1965]; type: functional
[27] = biological target: T10, Cannabinoid receptor 1; test: SAR analysis of agonists of the Cannabinoid Receptor 1 using an Image-Based Assay - Set 3. [Related pubchem assays (depositor defined):AID1961, AID1965]; type: functional
[28] = biological target: T9, G-protein coupled receptor 35; test: SAR analysis of Antagonists of the GPR35 Receptor using an Image-Based Assay - Set 4. [Related pubchem assays (depositor defined):[…]]; type: functional

In the case of `CCCCCCc1cc2cc(-c3nnc(-c4cc(OC)c(OC)c(OC)c4)o3)c(=O)oc2cc1O`, the AC50 [1] is reported as 7.35 µM (active) and the EC50 [2] is reported as > 100 µM (inactive).

In the case of `Cc1cc2nc(C3CCCN(C(=O)NCc4ccccc4)C3)[nH]c2cc1C` (stereo not drawn), the EC50 [3] is reported as > 71.6 µM (inactive), the AC50 [4] is reported as 25.1 µM (inconclusive) and the AC50 [5] is reported as 22.4 µM (inconclusive).

For `CC(C)N1C(=O)/C(=C/C=C/c2ccco2)C(=O)N(Cc2ccco2)C1=O`, the EC50 [6] was > 20 µM (inactive), the IC50 [7] was 18.8 µM (active) and the IC50 [8] was > 20 µM (inactive). For the same compound, the EC50 [9] was > 20 µM (inactive), the IC50 [10] was > 20 µM (inactive) and the IC50 [11] was > 20 µM (inactive). For the same compound, the AC50 [12] was 9.97 µM (active), the IC50 [13] was 8.31 µM (active) and the AC50 [14] was 8.26 µM (active). The CC50 [15] was > 40 µM (active).

For `COc1ccc(/C=C/C(=O)NC(=S)NNC(=O)c2cccnc2)cc1`, the “Absolute IC50 (CHOP)” value [16] was 10 µM.

For `Cc1cc(C)cc(-n2c3nc4ccccc4nc3c3c(=O)n(Cc4ccco4)cnc32)c1`, the IC50 [17] was > 100 µM (inactive), the IC50 [18] was 4.14 µM (active) and the IC50 [19] was 34 µM (active). The IC50 [20] was 1.28 µM (active) and the EC50 [21] was > 260 µM (inactive).

For `COc1ccc(S(=O)(=O)N2CCOCC2)cc1NC(=O)c1cc2c(s1)CCCCCC2`, the IC50 [22] was > 32 µM (inactive), the EC50 [23] was 17.7 µM (inactive) and the EC50 [24] was > 32 µM (inactive). For the same compound, the EC50 [25] was > 32 µM (inactive), the IC50 [26] was 18.2 µM (inactive) and the EC50 [27] was > 32 µM (inactive). For the same compound, the IC50 [28] was > 32 µM (inactive).
